Several values for one entry are separate records, joined by “and”; a condition that tells them apart may be missing. Identical values can stand only once. Like-named read-outs stand apart in the source and are kept apart here.
What was measured:
Assay in all cases: KiNativ assay
Assay type in all cases: binding
Conditions in all cases: H929 live cell
IRAK1 = IRAK1 (Homo sapiens (Human), UniProt P51617)
Description: (§1) Biochemical IC50s of the compounds of the present disclosure against various kinases were measured in a KiNativ assay. Compounds were screened in duplicate at 10 μM in H929 live cell. IC50 was measured via Mass spectroscopy (MS).

p38d, p38g = tested on: p38d, p38g
Description: as §1

JAK3 domain2 = JAK3 domain2 (Homo sapiens (Human), UniProt P52333)
Description: as §1

MARK2, MARK3 = tested on: MARK2, MARK3
Description: as §1

NEK7 = NEK7 (Homo sapiens (Human), UniProt Q8TDX7)
Description: as §1

TLK1 = TLK1 (Homo sapiens (Human), UniProt Q9UKI8)
Description: as §1

PHKg2 = PHKg2 (Homo sapiens (Human), UniProt P15735)
Sequence of PHKg2 (P15735 whole entry): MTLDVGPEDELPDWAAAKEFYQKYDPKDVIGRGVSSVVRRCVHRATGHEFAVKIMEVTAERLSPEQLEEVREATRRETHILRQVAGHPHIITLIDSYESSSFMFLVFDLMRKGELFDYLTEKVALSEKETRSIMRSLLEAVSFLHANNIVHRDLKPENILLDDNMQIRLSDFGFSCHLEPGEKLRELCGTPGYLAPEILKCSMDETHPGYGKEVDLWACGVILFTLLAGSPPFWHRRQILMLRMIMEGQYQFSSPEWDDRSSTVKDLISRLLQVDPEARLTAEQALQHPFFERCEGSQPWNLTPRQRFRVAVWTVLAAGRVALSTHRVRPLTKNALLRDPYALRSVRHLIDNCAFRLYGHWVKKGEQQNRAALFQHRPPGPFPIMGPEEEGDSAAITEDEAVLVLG
Description: as §1

PIK3C3 = PIK3C3 (Homo sapiens (Human), UniProt Q8NEB9)
Sequence of PIK3C3 (Q8NEB9 whole entry): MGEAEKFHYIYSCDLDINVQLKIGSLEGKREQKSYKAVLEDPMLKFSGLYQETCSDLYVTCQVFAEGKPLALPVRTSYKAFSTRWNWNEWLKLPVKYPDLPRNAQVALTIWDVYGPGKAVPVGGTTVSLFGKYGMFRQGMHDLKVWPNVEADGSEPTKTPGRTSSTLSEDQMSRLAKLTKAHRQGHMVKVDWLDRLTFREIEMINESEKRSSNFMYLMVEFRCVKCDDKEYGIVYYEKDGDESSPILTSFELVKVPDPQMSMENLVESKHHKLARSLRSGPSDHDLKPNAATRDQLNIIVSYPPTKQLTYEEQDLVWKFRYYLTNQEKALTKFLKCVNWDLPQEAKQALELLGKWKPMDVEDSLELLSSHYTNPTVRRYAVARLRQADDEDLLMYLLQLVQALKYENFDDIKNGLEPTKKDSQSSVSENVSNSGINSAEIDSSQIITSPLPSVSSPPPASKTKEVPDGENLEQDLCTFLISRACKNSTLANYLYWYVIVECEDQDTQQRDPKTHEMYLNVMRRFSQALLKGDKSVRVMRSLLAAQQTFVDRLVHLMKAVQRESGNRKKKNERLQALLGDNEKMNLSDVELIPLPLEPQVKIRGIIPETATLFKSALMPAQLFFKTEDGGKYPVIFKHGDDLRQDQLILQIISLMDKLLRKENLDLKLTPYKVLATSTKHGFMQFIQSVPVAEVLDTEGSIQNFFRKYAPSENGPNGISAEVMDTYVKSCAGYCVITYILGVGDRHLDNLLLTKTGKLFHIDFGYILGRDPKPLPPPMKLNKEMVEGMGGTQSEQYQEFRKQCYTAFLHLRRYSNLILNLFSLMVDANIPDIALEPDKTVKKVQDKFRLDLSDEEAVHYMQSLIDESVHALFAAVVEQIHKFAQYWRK
Description: as §1

FYN, SRC, YES = tested on: FYN, SRC, YES
Description: as §1

AMPKa1, AMPKa2 = tested on: AMPKa1, AMPKa2
Description: as §1

MST3 = MST3 (Homo sapiens (Human), UniProt Q9Y6E0)
Description: as §1

MSK1 domain1 = MSK1 domain1 (Homo sapiens (Human), UniProt O75582)
Sequence of MSK1 domain1 (O75582 whole entry, the tested form may be a part): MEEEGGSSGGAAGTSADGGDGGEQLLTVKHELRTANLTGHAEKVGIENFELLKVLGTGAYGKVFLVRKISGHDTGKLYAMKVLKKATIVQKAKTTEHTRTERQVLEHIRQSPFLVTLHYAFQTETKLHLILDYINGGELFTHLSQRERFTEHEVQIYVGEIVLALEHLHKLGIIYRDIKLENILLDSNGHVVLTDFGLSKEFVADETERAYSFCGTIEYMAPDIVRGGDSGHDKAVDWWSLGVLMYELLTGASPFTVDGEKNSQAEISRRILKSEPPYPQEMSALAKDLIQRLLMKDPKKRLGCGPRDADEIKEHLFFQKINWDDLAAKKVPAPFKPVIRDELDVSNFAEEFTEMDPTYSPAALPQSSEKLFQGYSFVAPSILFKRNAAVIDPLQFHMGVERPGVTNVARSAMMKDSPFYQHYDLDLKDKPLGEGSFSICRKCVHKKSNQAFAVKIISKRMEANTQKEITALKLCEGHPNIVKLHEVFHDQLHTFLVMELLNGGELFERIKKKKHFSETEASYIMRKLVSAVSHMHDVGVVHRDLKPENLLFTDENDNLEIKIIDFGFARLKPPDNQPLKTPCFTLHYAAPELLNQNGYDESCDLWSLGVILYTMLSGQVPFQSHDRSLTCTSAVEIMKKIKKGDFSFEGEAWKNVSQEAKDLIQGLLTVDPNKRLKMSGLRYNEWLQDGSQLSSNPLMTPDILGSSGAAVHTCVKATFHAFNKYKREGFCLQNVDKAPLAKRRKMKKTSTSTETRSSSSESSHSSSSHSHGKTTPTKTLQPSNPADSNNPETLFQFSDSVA
Description: as §1

KHS1 = KHS1 (Homo sapiens (Human), UniProt Q9Y4K4)
Description: as §1

PKR = PKR (Homo sapiens (Human), UniProt P19525)
Description: as §1

p70S6Kb = p70S6Kb (Homo sapiens (Human), UniProt Q9UBS0)
Description: as §1

CDK5 = CDK5 (Homo sapiens (Human), UniProt Q00535)
Description: as §1

PIK3CB = PIK3CB (Homo sapiens (Human), UniProt P42338)
Description: as §1

MAP2K5 = MAP2K5 (Homo sapiens (Human), UniProt Q13163)
Sequence of MAP2K5 (Q13163 whole entry): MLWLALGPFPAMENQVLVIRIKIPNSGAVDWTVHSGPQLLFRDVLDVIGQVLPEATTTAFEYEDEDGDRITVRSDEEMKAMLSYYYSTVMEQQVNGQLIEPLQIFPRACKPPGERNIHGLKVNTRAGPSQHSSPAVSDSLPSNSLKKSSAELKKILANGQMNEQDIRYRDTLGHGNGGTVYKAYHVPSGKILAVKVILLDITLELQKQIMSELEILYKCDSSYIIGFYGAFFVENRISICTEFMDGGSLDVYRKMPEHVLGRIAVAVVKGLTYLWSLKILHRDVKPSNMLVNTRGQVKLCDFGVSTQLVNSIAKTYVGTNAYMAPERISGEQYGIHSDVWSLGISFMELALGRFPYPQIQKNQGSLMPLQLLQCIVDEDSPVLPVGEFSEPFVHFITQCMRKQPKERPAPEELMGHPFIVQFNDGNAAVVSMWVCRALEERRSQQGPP
Description: as §1

IRAK4 = IRAK4 (Homo sapiens (Human), UniProt Q9NWZ3)
Sequence of IRAK4 (Q9NWZ3 whole entry): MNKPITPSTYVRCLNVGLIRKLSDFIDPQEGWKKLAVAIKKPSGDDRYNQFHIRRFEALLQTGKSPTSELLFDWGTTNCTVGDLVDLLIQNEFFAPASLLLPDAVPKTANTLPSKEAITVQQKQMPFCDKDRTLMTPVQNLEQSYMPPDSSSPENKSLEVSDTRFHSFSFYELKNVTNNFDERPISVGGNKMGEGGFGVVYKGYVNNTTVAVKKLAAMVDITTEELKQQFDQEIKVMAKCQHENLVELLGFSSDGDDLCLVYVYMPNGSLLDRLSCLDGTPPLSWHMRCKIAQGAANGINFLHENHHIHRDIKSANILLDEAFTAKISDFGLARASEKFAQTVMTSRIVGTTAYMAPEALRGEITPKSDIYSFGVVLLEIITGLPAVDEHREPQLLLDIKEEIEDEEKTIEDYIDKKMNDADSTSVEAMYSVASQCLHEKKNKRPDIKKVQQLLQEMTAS
Description: as §1

NEK1 = NEK1 (Homo sapiens (Human), UniProt Q96PY6)
Description: as §1

PI4KA, PI4KAP2 = tested on: PI4KA, PI4KAP2
Description: as §1

OSR1 = OSR1 (Homo sapiens (Human), UniProt O95747)
Description: as §1

MAP2K1, MAP2K2 = tested on: MAP2K1, MAP2K2
Description: as §1

[1] = tested on: RSK1 domain1, RSK2 domain1, RSK3 domain1
Description: as §1

CaMKK2 = CaMKK2 (Homo sapiens (Human), UniProt Q96RR4)
Description: as §1

Erk2 = Erk2 (Homo sapiens (Human), UniProt P28482)
Sequence of Erk2 (P28482 whole entry): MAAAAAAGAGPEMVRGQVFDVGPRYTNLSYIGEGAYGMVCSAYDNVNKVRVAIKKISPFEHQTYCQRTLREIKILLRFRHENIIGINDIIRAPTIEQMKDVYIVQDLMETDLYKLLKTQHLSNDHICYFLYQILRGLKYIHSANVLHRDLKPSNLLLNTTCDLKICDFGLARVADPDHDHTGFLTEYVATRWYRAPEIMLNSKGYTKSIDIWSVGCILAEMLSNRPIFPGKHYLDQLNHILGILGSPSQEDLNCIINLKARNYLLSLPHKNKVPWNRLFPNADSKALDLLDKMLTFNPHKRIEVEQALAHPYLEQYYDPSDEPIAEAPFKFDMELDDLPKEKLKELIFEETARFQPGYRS
Description: as §1

RSK1 domain1 = RSK1 domain1 (Homo sapiens (Human), UniProt Q15418)
Sequence of RSK1 domain1 (Q15418 whole entry, the tested form may be a part): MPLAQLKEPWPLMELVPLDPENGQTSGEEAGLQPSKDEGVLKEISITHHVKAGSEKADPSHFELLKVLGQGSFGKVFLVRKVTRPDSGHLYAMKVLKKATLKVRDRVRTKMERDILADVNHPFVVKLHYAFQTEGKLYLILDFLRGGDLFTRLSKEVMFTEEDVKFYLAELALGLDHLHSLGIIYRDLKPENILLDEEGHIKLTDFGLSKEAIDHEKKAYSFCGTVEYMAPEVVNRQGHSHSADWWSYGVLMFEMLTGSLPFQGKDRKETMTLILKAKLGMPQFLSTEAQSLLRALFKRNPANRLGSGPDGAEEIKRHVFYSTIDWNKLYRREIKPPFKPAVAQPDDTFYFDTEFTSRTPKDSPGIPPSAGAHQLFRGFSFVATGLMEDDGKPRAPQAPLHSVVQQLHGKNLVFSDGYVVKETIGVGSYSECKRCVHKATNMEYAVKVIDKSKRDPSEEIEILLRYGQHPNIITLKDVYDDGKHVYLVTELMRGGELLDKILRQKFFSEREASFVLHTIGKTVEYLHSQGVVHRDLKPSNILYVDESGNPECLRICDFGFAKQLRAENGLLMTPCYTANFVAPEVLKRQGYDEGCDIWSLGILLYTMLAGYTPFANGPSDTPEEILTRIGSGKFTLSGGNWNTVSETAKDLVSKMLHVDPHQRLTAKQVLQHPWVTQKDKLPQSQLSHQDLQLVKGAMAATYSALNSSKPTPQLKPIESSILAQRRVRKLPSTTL
Description: as §1

LATS1 = LATS1 (Homo sapiens (Human), UniProt O95835)
Description: as §1

PKD2 = PKD2 (Homo sapiens (Human), UniProt Q9BZL6)
Sequence of PKD2 (Q9BZL6 whole entry): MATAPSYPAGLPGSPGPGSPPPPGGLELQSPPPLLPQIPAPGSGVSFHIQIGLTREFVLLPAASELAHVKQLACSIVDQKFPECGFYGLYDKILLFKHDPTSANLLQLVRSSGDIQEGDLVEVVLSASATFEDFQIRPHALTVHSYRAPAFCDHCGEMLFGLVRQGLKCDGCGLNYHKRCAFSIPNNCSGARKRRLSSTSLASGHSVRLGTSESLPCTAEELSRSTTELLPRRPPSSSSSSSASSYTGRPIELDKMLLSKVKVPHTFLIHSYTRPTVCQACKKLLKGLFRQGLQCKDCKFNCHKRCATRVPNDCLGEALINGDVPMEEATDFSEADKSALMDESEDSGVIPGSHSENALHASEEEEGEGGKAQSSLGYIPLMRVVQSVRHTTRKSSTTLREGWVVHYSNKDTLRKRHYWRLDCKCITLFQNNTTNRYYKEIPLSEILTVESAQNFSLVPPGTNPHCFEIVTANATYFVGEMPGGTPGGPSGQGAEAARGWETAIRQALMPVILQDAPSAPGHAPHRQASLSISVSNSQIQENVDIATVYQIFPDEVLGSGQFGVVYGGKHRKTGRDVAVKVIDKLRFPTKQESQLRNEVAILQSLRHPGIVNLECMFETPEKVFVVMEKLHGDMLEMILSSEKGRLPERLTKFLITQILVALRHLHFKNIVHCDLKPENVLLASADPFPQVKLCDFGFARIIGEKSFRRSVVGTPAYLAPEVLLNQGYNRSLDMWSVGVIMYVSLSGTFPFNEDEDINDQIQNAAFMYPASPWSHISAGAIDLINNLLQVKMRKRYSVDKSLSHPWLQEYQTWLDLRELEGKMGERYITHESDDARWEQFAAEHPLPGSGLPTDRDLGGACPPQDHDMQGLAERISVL
Description: as §1

GSK3A = GSK3A (Homo sapiens (Human), UniProt P49840)
Description: as §1

PI4KB = PI4KB (Homo sapiens (Human), UniProt Q9UBF8)
Description: as §1

SMG1 = SMG1 (Homo sapiens (Human), UniProt Q96Q15)
Description: as §1

MLKL = MLKL (Homo sapiens (Human), UniProt Q8NB16)
Description: as §1

AKT1 = AKT1 (Homo sapiens (Human), UniProt P31749)
Description: as §1

[2] = range class, read-out: % inhibition

CN(C1CC1)S(=O)(=O)c1ccc(-c2cnc(N)c(-c3ccc4c(c3)CCNC4=O)c2)c(F)c1 [Compound I-28, 4-(6-amino-5-(1-oxo-1,2,3,4-tetrahydroisoquinolin-6-yl)pyridin-3-yl)-N-cyclopropyl-3-fluoro-N-methylbenzenesulfonamide]
inhibition at 10 µM (IRAK1; read-out: % inhibition (range)): 50 to 75%
inhibition at 10 µM (IRAK1; read-out: inhibition (10 μM)): 67.8%
% inhibition (range) (p38d, p38g; 10 μM): 0.0%
inhibition (10 μM) (p38d, p38g): 7.7%
inhibition at 10 µM (JAK3 domain2; read-out: % inhibition (range)): 0%
inhibition at 10 µM (JAK3 domain2; read-out: inhibition (10 μM)): 15.2%
% inhibition (range) (MARK2, MARK3; 10 μM): 0.0%
inhibition (10 μM) (MARK2, MARK3): −7.8%
inhibition at 10 µM (NEK7; read-out: % inhibition (range)): 0%
inhibition at 10 µM (NEK7; read-out: inhibition (10 μM)): 16%
inhibition at 10 µM (TLK1; read-out: % inhibition (range)): 0%
inhibition at 10 µM (TLK1; read-out: inhibition (10 μM)): 1.8%
inhibition at 10 µM (PHKg2; read-out: % inhibition (range)): 0%
inhibition at 10 µM (PHKg2; read-out: inhibition (10 μM)): 17.3%
inhibition at 10 µM (PIK3C3; read-out: % inhibition (range)): > 100%
inhibition at 10 µM (PIK3C3; read-out: inhibition (10 μM)): -107%
% inhibition (range) (FYN, SRC, YES; 10 μM): 0.0%
inhibition (10 μM) (FYN, SRC, YES): 2.2%
% inhibition (range) (AMPKa1, AMPKa2; 10 μM): 0.0%
inhibition (10 μM) (AMPKa1, AMPKa2): −1.6%
inhibition at 10 µM (MST3; read-out: % inhibition (range)): 50 to 75%
inhibition at 10 µM (MST3; read-out: inhibition (10 μM)): 72.3%
inhibition at 10 µM (MSK1 domain1; read-out: % inhibition (range)): 0%
inhibition at 10 µM (MSK1 domain1; read-out: inhibition (10 μM)): 5.4%
inhibition at 10 µM (KHS1; read-out: % inhibition (range)): 75 to 90%
inhibition at 10 µM (KHS1; read-out: inhibition (10 μM)): 75.6%
inhibition at 10 µM (PKR; read-out: % inhibition (range)): 0%
inhibition at 10 µM (PKR; read-out: inhibition (10 μM)): -0.8%
inhibition at 10 µM (p70S6Kb; read-out: % inhibition (range)): 0%
inhibition at 10 µM (p70S6Kb; read-out: inhibition (10 μM)): -14.4%
inhibition at 10 µM (CDK5; read-out: % inhibition (range)): 0%
inhibition at 10 µM (CDK5; read-out: inhibition (10 μM)): 17%
inhibition at 10 µM (PIK3CB; read-out: % inhibition (range)): 0%
inhibition at 10 µM (PIK3CB; read-out: inhibition (10 μM)): 1.9%
inhibition at 10 µM (MAP2K5; read-out: % inhibition (range)): 50 to 75%
inhibition at 10 µM (MAP2K5; read-out: inhibition (10 μM)): 58%
inhibition at 10 µM (IRAK4; read-out: % inhibition (range)): 0%
inhibition at 10 µM (IRAK4; read-out: inhibition (10 μM)): -0.7%
inhibition at 10 µM (NEK1; read-out: % inhibition (range)): 0%
inhibition at 10 µM (NEK1; read-out: inhibition (10 μM)): -14.1%
% inhibition (range) (PI4KA, PI4KAP2; 10 μM): 0.0%
inhibition (10 μM) (PI4KA, PI4KAP2): −13.2%
inhibition at 10 µM (OSR1; read-out: % inhibition (range)): 0%
inhibition at 10 µM (OSR1; read-out: inhibition (10 μM)): 22.8%
% inhibition (range) (MAP2K1, MAP2K2; 10 μM): 0.0%
inhibition (10 μM) (MAP2K1, MAP2K2): 0.5% and −0.9%
% inhibition (range) ([1]; 10 μM): 0.0%
inhibition (10 μM) [1]: 13.3%
inhibition at 10 µM (CaMKK2; read-out: % inhibition (range)): 50 to 75%
inhibition at 10 µM (CaMKK2; read-out: inhibition (10 μM)): 57%
inhibition at 10 µM (Erk2; read-out: % inhibition (range)): 0%
inhibition at 10 µM (Erk2; read-out: inhibition (10 μM)): 13.9%
inhibition at 10 µM (RSK1 domain1; read-out: % inhibition (range)): 0%
inhibition at 10 µM (RSK1 domain1; read-out: inhibition (10 μM)): 15.6%
inhibition at 10 µM (LATS1; read-out: % inhibition (range)): 0%
inhibition at 10 µM (LATS1; read-out: inhibition (10 μM)): 4.8%
inhibition at 10 µM (PKD2; read-out: % inhibition (range)): 35 to 50%
inhibition at 10 µM (PKD2; read-out: inhibition (10 μM)): 38.9%
inhibition at 10 µM (GSK3A; read-out: % inhibition (range)): > 90%
inhibition at 10 µM (GSK3A; read-out: inhibition (10 μM)): 93.5%
inhibition at 10 µM (PI4KB; read-out: % inhibition (range)): 0%
inhibition at 10 µM (PI4KB; read-out: inhibition (10 μM)): 16.7%
inhibition at 10 µM (SMG1; read-out: % inhibition (range)): 35 to 50%
inhibition at 10 µM (SMG1; read-out: inhibition (10 μM)): 42.9%
inhibition at 10 µM (MLKL; read-out: % inhibition (range)): 0%
inhibition at 10 µM (MLKL; read-out: inhibition (10 μM)): 23.9%
inhibition at 10 µM (AKT1; read-out: % inhibition (range)): 0%
inhibition at 10 µM (AKT1; read-out: inhibition (10 μM)): 11.1%

COc1cc(NS(=O)(=O)C2CC2)ccc1-c1cnc(N)c(-c2ccc3c(c2)CCNC3=O)c1 [Compound I-50, N-(4-(6-amino-5-(1-oxo-1,2,3,4-tetrahydroisoquinolin-6-yl)pyridin-3-yl)-3-methoxyphenyl) cyclopropanesulfonamide]
inhibition at 10 µM (IRAK1; [2]): 50 to 75%
inhibition at 10 µM (IRAK1; read-out: inhibition (10 μM)): 51.2%
% inhibition (p38d, p38g; 10 μM, range class): 0.0%
inhibition (10 μM) (p38d, p38g): 7.4%
inhibition at 10 µM (JAK3 domain2; [2]): 0%
inhibition at 10 µM (JAK3 domain2; read-out: inhibition (10 μM)): -20.2%
% inhibition (MARK2, MARK3; 10 μM, range class): 0.0%
inhibition (10 μM) (MARK2, MARK3): 0.4%
inhibition at 10 µM (NEK7; [2]): 0%
inhibition at 10 µM (NEK7; read-out: inhibition (10 μM)): -18.9%
inhibition at 10 µM (TLK1; [2]): 0%
inhibition at 10 µM (TLK1; read-out: inhibition (10 μM)): -7.5%
inhibition at 10 µM (PHKg2; [2]): 0%
inhibition at 10 µM (PHKg2; read-out: inhibition (10 μM)): -38.6%
inhibition at 10 µM (PIK3C3; [2]): 0%
inhibition at 10 µM (PIK3C3; read-out: inhibition (10 μM)): -32.5%
% inhibition (FYN, SRC, YES; 10 μM, range class): 0.0%
inhibition (10 μM) (FYN, SRC, YES): −2.0%
% inhibition (AMPKa1, AMPKa2; 10 μM, range class): 0.0%
inhibition (10 μM) (AMPKa1, AMPKa2): −8.2%
inhibition at 10 µM (MST3; [2]): 0%
inhibition at 10 µM (MST3; read-out: inhibition (10 μM)): 20%
inhibition at 10 µM (MSK1 domain1; [2]): 0%
inhibition at 10 µM (MSK1 domain1; read-out: inhibition (10 μM)): 0.1%
inhibition at 10 µM (KHS1; [2]): 75 to 90%
inhibition at 10 µM (KHS1; read-out: inhibition (10 μM)): 77.8%
inhibition at 10 µM (PKR; [2]): 0%
inhibition at 10 µM (PKR; read-out: inhibition (10 μM)): 1.8%
inhibition at 10 µM (p70S6Kb; [2]): 0%
inhibition at 10 µM (p70S6Kb; read-out: inhibition (10 μM)): 14%
inhibition at 10 µM (CDK5; [2]): 0%
inhibition at 10 µM (CDK5; read-out: inhibition (10 μM)): 11.3%
inhibition at 10 µM (PIK3CB; [2]): 0%
inhibition at 10 µM (PIK3CB; read-out: inhibition (10 μM)): 27.7%
inhibition at 10 µM (MAP2K5; [2]): 0%
inhibition at 10 µM (MAP2K5; read-out: inhibition (10 μM)): -12.1%
inhibition at 10 µM (IRAK4; [2]): 0%
inhibition at 10 µM (IRAK4; read-out: inhibition (10 μM)): 19.6%
inhibition at 10 µM (NEK1; [2]): 0%
inhibition at 10 µM (NEK1; read-out: inhibition (10 μM)): 16.8%
% inhibition (PI4KA, PI4KAP2; 10 μM, range class): 0.0%
inhibition (10 μM) (PI4KA, PI4KAP2): 24.7%
inhibition at 10 µM (OSR1; [2]): 0%
inhibition at 10 µM (OSR1; read-out: inhibition (10 μM)): 16.6%
% inhibition (MAP2K1, MAP2K2; 10 μM, range class): 0.0%
% inhibition ([1]; 10 μM, range class): 0.0%
inhibition (10 μM) [1]: 15.8%
inhibition at 10 µM (CaMKK2; [2]): 75 to 90%
inhibition at 10 µM (CaMKK2; read-out: inhibition (10 μM)): 88.3%
inhibition at 10 µM (Erk2; [2]): 0%
inhibition at 10 µM (Erk2; read-out: inhibition (10 μM)): 34.5%
inhibition at 10 µM (RSK1 domain1; [2]): 0%
inhibition at 10 µM (RSK1 domain1; read-out: inhibition (10 μM)): -4.6%
inhibition at 10 µM (LATS1; [2]): 0%
inhibition at 10 µM (LATS1; read-out: inhibition (10 μM)): 2.9%
inhibition at 10 µM (PKD2; [2]): 50 to 75%
inhibition at 10 µM (PKD2; read-out: inhibition (10 μM)): 51.5%
inhibition at 10 µM (GSK3A; [2]): 75 to 90%
inhibition at 10 µM (GSK3A; read-out: inhibition (10 μM)): 77.4%
inhibition at 10 µM (PI4KB; [2]): 0%
inhibition at 10 µM (PI4KB; read-out: inhibition (10 μM)): 0%
inhibition at 10 µM (SMG1; [2]): 0%
inhibition at 10 µM (SMG1; read-out: inhibition (10 μM)): 30.8%
inhibition at 10 µM (MLKL; [2]): 0%
inhibition at 10 µM (MLKL; read-out: inhibition (10 μM)): 8.2%
inhibition at 10 µM (AKT1; [2]): 0%
inhibition at 10 µM (AKT1; read-out: inhibition (10 μM)): 2.1%
